From patent US20210244720A1, “Therapeutic Tyrosine Kinase Inhibitors for Relapsing Multiple Sclerosis (RMS)” (Genzyme Corporation, priority 2020, published 2021)

Test system: participants with relapsing multiple sclerosis (RMS)
Test: Phase 2b study in RMS: safety and tolerability (adverse events, laboratory tests, ECG, vital signs)
Conditions: for proportion of participants with TEAEs: treatment period
[1] = 60 mg, 12 weeks treatment, n = 32
[2] = 60 mg, BTK inhibitor treatment period, safety population, N = 32
[3] = 60 mg, BTK inhibitor treatment period, safety population, N = 33
[4] = 12-week treatment period, 15 mg
[5] = 12-week treatment period, 30 mg
[6] = 12-week treatment period, 60 mg
[7] = All Dose Groups, 12 weeks treatment, N = 130
[8] = All Dose Groups, Weeks 1 to 12, N = 130
[9] = All, BTK inhibitor treatment period, safety population, N = 130

With `C=CC(=O)N1CCC[C@@H](n2c(=O)n(-c3ccc(Oc4ccccc4)cc3)c3c(N)nccc32)C1` [the BTK inhibitor, (R)-1-(1-acryloylpiperidin-3-yl)-4-amino-3-(4-phenoxyphenyl)-1H-imidazo[4,5-c]pyridin-2(3H)-one] the “Nasopharyngitis, patients %” value [1] was “(9%)”, the “Nasopharyngitis, patients n” value [1] was 3 and the “Oropharyngeal pain, patients %” value [1] was “(3%)”. For the same compound, the “Oropharyngeal pain, patients n” value [1] was 1, the “Peripheral edema, patients %” value [1] was “(6%)” and the “Peripheral edema, patients n” value [1] was 2. For the same compound, the “Respiratory tract infection, patients %” value [1] was “(3%)”, the “Respiratory tract infection, patients n” value [1] was 1 and the “Upper respiratory tract infection, patients %” value [1] was “(3%)”. For the same compound, the “Upper respiratory tract infection, patients n” value [1] was 1, the “AESI, Alanice aminotransferase increased, n (%)” value [2] was 1 (3.1) and the “AESI, Investigations, n (%)” value [2] was 1 (3.1). The “Any AESI, n (%)” value [2] was 1 (3.1), the “Participants with any TEAE, %” value [3] was “(54.5) %” and the “Participants with any treatment-related TEAE, %” value [3] was “(6.1) %”. The “treatment-emergent SAE” value (60 mg, Cohort 1, MS relapse) was “One”, the “AESI, Alanice aminotransferase increased, n (%)” value (60 mg, Weeks 1 to 4, N = 16) was 0 and the “AESI, Investigations, n (%)” value (60 mg, Weeks 1 to 4, N = 16) was 0. The “Any AESI, n (%)” value (60 mg, Weeks 1 to 4, N = 16) was 0, the “Participants with any TEAE, %” value (60 mg, Weeks 1 to 4, N = 33) was “(42.4) %” and the “Participants with any treatment-related TEAE, %” value (60 mg, Weeks 1 to 4, N = 33) was “(9.1) %”. For the same compound, the “Any AE, %” value (60 mg, Weeks 1 to 4, n = 16) was “(31.3%)”, the “Any treatment-related AE, %” value (60 mg, Weeks 1 to 4, n = 16) was “(6.3%)” and the “Any AE, %” value (60 mg, Weeks 1 to 12, n = 32) was “(50.0) %”. For the same compound, the “Any treatment-related AE, %” value (60 mg, Weeks 1 to 12, n = 32) was “(21.9) %”, the “Serious AE, %” value (60 mg, Weeks 1 to 12, n = 32) was “(3.1) %” and the “correlation between dose administered and number of TEAEs” value (5-60 mg) was “no direct correlation”. For the same compound, the “TEAE alanine aminotransferase increased” value (12-week treatment period, 5 mg) was 1, the TEAE alopecia (12-week treatment period, 5 mg) was 1 and the TEAE back pain (12-week treatment period, 5 mg) was 1. The TEAE gastroenteritis (12-week treatment period, 5 mg) was 1, the TEAE headache (12-week treatment period, 5 mg) was 1 and the TEAE nasopharyngitis (12-week treatment period, 5 mg) was 1. The TEAE oedema peripheral (12-week treatment period, 5 mg) was 2, the TEAE oropharyngeal pain (12-week treatment period, 5 mg) was 1 and the “TEAE upper respiratory tract infection” value (12-week treatment period, 5 mg) was 2. The TEAE alopecia [4] was 1, the TEAE back pain [4] was 1 and the TEAE headache [4] was 3. For the same compound, the “TEAE respiratory tract infection” value [4] was 1, the “TEAE upper respiratory tract infection” value [4] was 2 and the “TEAE alanine aminotransferase increased” value [5] was 1. The TEAE back pain [5] was 2, the TEAE headache [5] was 1 and the TEAE muscle spasticity [5] was 1. For the same compound, the TEAE nasopharyngitis [5] was 1, the TEAE oropharyngeal pain [5] was 1 and the “TEAE respiratory tract infection” value [5] was 1. For the same compound, the “TEAE upper respiratory tract infection” value [5] was 1, the TEAE accidental overdose [6] was 3 and the “TEAE alanine aminotransferase increased” value [6] was 1. The TEAE alopecia [6] was 1, the TEAE gastroenteritis [6] was 2 and the TEAE headache [6] was 4. The TEAE muscle spasticity [6] was 2, the TEAE nasopharyngitis [6] was 3 and the TEAE oedema peripheral [6] was 2. For the same compound, the TEAE oropharyngeal pain [6] was 1, the “TEAE respiratory tract infection” value [6] was 1 and the “TEAE upper respiratory tract infection” value [6] was 1. For the same compound, the tolerability (12 weeks of treatment) was “well-tolerated”, the “Accidental overdose, patients n (%)” value [7] was 3 (2%) and the “Alanine aminotransferase increased, patients n (%)” value [7] was 3 (2%). For the same compound, the “Alopecia, patients n (%)” value [7] was 3 (2%), the “Back pain, patients n (%)” value [7] was 4 (3%) and the “Gastroenteritis, patients n (%)” value [7] was 3 (2%). For the same compound, the “Headache, patients n (%)” value [7] was 9 (7%), the “Muscle spasticity, patients n (%)” value [7] was 3 (2%) and the “Nasopharyngitis, patients n (%)” value [7] was 5 (4%). The “Oropharyngeal pain, patients n (%)” value [7] was 3 (2%), the “Peripheral edema, patients n (%)” value [7] was 4 (3%) and the “Respiratory tract infection, patients n (%)” value [7] was 3 (2%). For the same compound, the “Upper respiratory tract infection, patients n (%)” value [7] was 6 (5%), the “Any AE, %” value [8] was “(53.8) %” and the “Any treatment-related AE, %” value [8] was “(13.1) %”. The “Serious AE, %” value [8] was “(0.8) %”, the “AESI, Alanice aminotransferase increased, n (%)” value [9] was 2 (1.5) and the “AESI, Investigations, n (%)” value [9] was 2 (1.5). For the same compound, the “Any AESI, n (%)” value [9] was 2 (1.5), the “Participants with any TEAE, %” value [9] was “(53.1) %” and the “Participants with any severe TEAE, %” value [9] was “(0.8) %”. For the same compound, the “Participants with any treatment emergent SAE, %” value [9] was “(0.8) %”, the “Participants with any treatment-related TEAE, %” value [9] was “(11.5) %” and the “Participants with treatment emergent SAE(s), Any class, n(%)” value [9] was 1 (0.8). For the same compound, the “Participants with treatment emergent SAE(s), Multiple sclerosis relapse, n(%)” value [9] was 1 (0.8), the “Participants with treatment emergent SAE(s), NERVOUS SYSTEM DISORDERS, n(%)” value [9] was 1 (0.8) and the “Participants with any TEAE, %” value (All, Weeks 1 to 4, N = 130) was “(38.5) %”. For the same compound, the “Participants with any treatment-related TEAE, %” value (All, Weeks 1 to 4, N = 130) was “(9.2) %”, the TEAE headache (Weeks 1 to 4, 5 mg) was 3 cases and the TEAE nausea (Weeks 1 to 4, 5 mg) was 2 cases. The “proportion of participants who experienced TEAEs” value (Weeks 1 to 4, 5 mg) was 31.3%, the TEAE headache (Weeks 1 to 4, 15 mg) was 2 cases and the “proportion of participants who experienced TEAEs” value (Weeks 1 to 4, 15 mg) was 18.8%. The TEAE nausea (Weeks 1 to 4, 30 mg) was 1 cases, the “proportion of participants who experienced TEAEs” value (Weeks 1 to 4, 30 mg) was 12.5% and the TEAE headache (Weeks 1 to 4, 60 mg) was 1 cases. The “proportion of participants who experienced TEAEs” value (Weeks 1 to 4, 60 mg) was 31.3%, the “TEAE upper respiratory tract infection” value (Weeks 1 to 4, each treatment group) was 1 case and the “TEAEs leading to permanent treatment discontinuation” value (all dose groups) was “no TEAEs leading to permanent treatment discontinuation”. For the same compound, the “intensity of TEAEs” value (all dose groups) was “mild or moderate intensity except for one severe TEAE”, the “PCSAs related to vital signs, labs and ECGs” value (multiple treatment groups) was “no dose relationship” and the “proportion of participants with TEAEs” value (5 mg) was 57.6%. The “proportion of participants with TEAEs” value (15 mg) was 53.1%, the “proportion of participants with TEAEs” value (30 mg) was 54.5% and the “proportion of participants with TEAEs” value (60 mg) was 50.0%. For the same compound, the “AESIs (alanine aminotransferase increased >3×ULN)” value (whole study) was “two” and the deaths (whole study) was “No deaths”.
